Source: ChEMBL document CHEMBL1201862, “PubChem BioAssay data set” (2004)
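Each compound was tested at five concentrations against cells in 96-well plates for 48 hours. GI50: concentration for 50% inhibition of growth.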 Calls of active or inactive are those of the source. No stated cut-off is given here; in the data, active = GI50 up to about 1.1 µM and inactive = higher.

What was measured:
Assay in all cases: DTP human tumour cell line panel, 48 h
786-0 = test system: 786-0
A549 = test system: A549
BT-549 = test system: BT-549
CAKI-1 = test system: CAKI-1
CCRF-CEM = test system: CCRF-CEM
COLO 205 = test system: COLO 205
HOP-92 = test system: HOP-92
KM12 = test system: KM12
LOX IMVI = test system: LOX IMVI
M14 = test system: M14
MCF7 = test system: MCF7
NCI-H522 = test system: NCI-H522
NCI/ADR-RES = test system: NCI/ADR-RES
OVCAR-3 = test system: OVCAR-3
OVCAR-8 = test system: OVCAR-8
SK-MEL-28 = test system: SK-MEL-28
SNB-19 = test system: SNB-19
SNB-75 = test system: SNB-75
U-251 = test system: U-251
NCI-H226 = test system: NCI-H226

Measured: GI50

OC(Cc1ccc2ccccc2n1)(C(F)(F)F)C(F)(F)F
inactive: 786-0 > 10 µM | A549 > 10 µM | BT-549 > 10 µM | CAKI-1 > 10 µM | CCRF-CEM > 10 µM | COLO 205 > 10 µM | HOP-92 > 10 µM | KM12 > 10 µM | LOX IMVI > 10 µM | M14 > 10 µM | MCF7 > 10 µM | NCI-H522 > 10 µM | NCI/ADR-RES > 10 µM | OVCAR-3 > 10 µM | OVCAR-8 > 10 µM | SK-MEL-28 > 10 µM | SNB-19 > 10 µM | SNB-75 > 10 µM | U-251 > 10 µM

O=C1CSC(c2ccc([N+](=O)[O-])cc2)N1c1ccc(-n2c(-c3ccccc3)nc3ccccc3c2=O)cc1 (configuration not stated)
inactive: 786-0 > 100 µM | A549 > 100 µM | BT-549 16.7 µM | CAKI-1 64.6 µM | CCRF-CEM > 100 µM | COLO 205 > 100 µM | KM12 31.7 µM | LOX IMVI > 100 µM | M14 > 100 µM | MCF7 73.5 µM | NCI-H226 2.96 µM | NCI-H522 40.8 µM | NCI/ADR-RES 60.7 µM | OVCAR-3 > 100 µM | OVCAR-8 > 100 µM | SK-MEL-28 > 100 µM | SNB-19 > 100 µM | U-251 > 100 µM

[N-]=[N+]=Nc1ccccc1-c1ccccc1[N+](=O)[O-]
inactive: 786-0 88.1 µM | A549 > 100 µM | BT-549 32.3 µM | CAKI-1 > 100 µM | HOP-92 72.1 µM | KM12 49.2 µM | LOX IMVI 48.6 µM | M14 50.9 µM | MCF7 52 µM | NCI-H522 14.9 µM | NCI/ADR-RES 29.9 µM | OVCAR-3 39.4 µM | OVCAR-8 73.3 µM | SK-MEL-28 > 100 µM | SNB-19 > 100 µM | SNB-75 50 µM | U-251 42.9 µM

CCOC(OCC)[C@@H]1C[C@@H]2N(O[C@H](OC3CCCC3(c3ccccc3)c3ccccc3)[C@H](OC(C)=O)[C@@]2(CC)Cc2ccc(OC)c(OC)c2)O1 (some centres not stated)
inactive: 786-0 > 100 µM | A549 > 100 µM | BT-549 > 100 µM | CAKI-1 > 100 µM | CCRF-CEM > 100 µM | COLO 205 > 100 µM | KM12 > 100 µM | LOX IMVI > 100 µM | M14 > 100 µM | MCF7 > 100 µM | NCI-H226 > 100 µM | NCI-H522 > 100 µM | NCI/ADR-RES > 100 µM | OVCAR-3 > 100 µM | SK-MEL-28 > 100 µM | SNB-19 > 100 µM | SNB-75 > 100 µM | U-251 > 100 µM

Nc1n[n+]([O-])c2ccc(Cl)cc2[n+]1[O-]
inactive: 786-0 31.7 µM | A549 20.4 µM | BT-549 13.2 µM | CAKI-1 21.9 µM | CCRF-CEM 22.4 µM | COLO 205 12.8 µM | KM12 16.1 µM | LOX IMVI 25.1 µM | M14 17.1 µM | MCF7 16.9 µM | NCI-H226 23.1 µM | NCI-H522 15.3 µM | NCI/ADR-RES 36.3 µM | OVCAR-8 > 10 µM | SK-MEL-28 23.8 µM | SNB-19 34.5 µM | SNB-75 4.66 µM | U-251 19.8 µM

COc1ccc(-c2cc(-c3ccc(Nc4ccnc5cc(Cl)ccc45)cc3)nc(N)c2C#N)c2ccccc12
inactive: 786-0 > 100 µM | A549 > 100 µM | BT-549 > 100 µM | CAKI-1 > 100 µM | CCRF-CEM > 100 µM | COLO 205 > 100 µM | KM12 > 100 µM | LOX IMVI > 100 µM | M14 > 100 µM | MCF7 > 100 µM | NCI-H226 > 100 µM | NCI-H522 > 100 µM | NCI/ADR-RES > 100 µM | OVCAR-8 > 100 µM | SK-MEL-28 > 100 µM | SNB-19 > 100 µM | SNB-75 > 100 µM | U-251 > 100 µM

C[C@H](NC(=O)CNC(=O)CCCCCC(=O)NCC(=O)N[C@@H](C)C(=O)OCc1ccccc1)C(=O)OCc1ccccc1
inactive: 786-0 > 100 µM | A549 > 100 µM | BT-549 > 100 µM | CAKI-1 > 100 µM | CCRF-CEM > 100 µM | COLO 205 > 100 µM | HOP-92 > 100 µM | KM12 > 100 µM | LOX IMVI > 100 µM | M14 > 100 µM | MCF7 > 100 µM | NCI-H226 > 100 µM | NCI/ADR-RES > 100 µM | OVCAR-3 > 100 µM | OVCAR-8 > 100 µM | SK-MEL-28 > 100 µM | SNB-19 > 100 µM | SNB-75 > 100 µM | U-251 > 100 µM

CC(C)c1cc(C(C)C)c(Cl)c(Cl)c1O.CC(C)c1cc(Cl)c(O)c(C(C)C)c1Cl
inactive: 786-0 34.5 µM | A549 40.2 µM | BT-549 19.9 µM | CAKI-1 20.5 µM | CCRF-CEM 37.1 µM | COLO 205 20.2 µM | HOP-92 10.5 µM | KM12 24.4 µM | LOX IMVI 32.3 µM | M14 71.8 µM | MCF7 23.7 µM | NCI-H522 14 µM | NCI/ADR-RES 32.8 µM | OVCAR-3 24.5 µM | OVCAR-8 26.7 µM | SK-MEL-28 24.1 µM | SNB-19 23 µM | U-251 34.7 µM

CCn1c(SCC(=O)N/N=C2\SCC(=O)N2c2ccc(C)cc2)nc2ccccc2c1=O
inactive: 786-0 19.1 µM | A549 21.2 µM | BT-549 > 10 µM | CAKI-1 18.7 µM | CCRF-CEM 34 µM | COLO 205 50.9 µM | KM12 19.4 µM | LOX IMVI 25.2 µM | M14 36.1 µM | MCF7 20.6 µM | NCI-H226 23.8 µM | NCI-H522 22.4 µM | NCI/ADR-RES 19.8 µM | OVCAR-3 21.4 µM | OVCAR-8 17 µM | SK-MEL-28 20.6 µM | SNB-19 20.8 µM | SNB-75 17.1 µM | U-251 20.7 µM

Cc1ccc(S[C@@](C=O)(NC(=O)OCc2ccccc2)C(F)(F)F)cc1
inactive: 786-0 20.4 µM | A549 21.2 µM | BT-549 28.4 µM | CAKI-1 26.1 µM | CCRF-CEM 23.2 µM | COLO 205 17 µM | HOP-92 22.9 µM | KM12 20.8 µM | LOX IMVI 21.3 µM | M14 29.1 µM | MCF7 26.7 µM | NCI-H226 18.6 µM | NCI/ADR-RES 21.4 µM | OVCAR-3 42 µM | OVCAR-8 20.7 µM | SK-MEL-28 25.3 µM | SNB-19 21 µM | SNB-75 22.5 µM | U-251 17.6 µM

c1cc2nnc1SCCCSc1ccc(nn1)SCCCSc1ccc(nn1)SCCCS2
inactive: 786-0 61 µM | A549 > 100 µM | BT-549 > 100 µM | CAKI-1 > 100 µM | CCRF-CEM > 100 µM | COLO 205 > 100 µM | KM12 > 100 µM | LOX IMVI > 100 µM | M14 > 100 µM | MCF7 > 100 µM | NCI-H226 > 100 µM | NCI-H522 > 100 µM | NCI/ADR-RES > 100 µM | OVCAR-3 > 100 µM | OVCAR-8 > 100 µM | SK-MEL-28 > 100 µM | SNB-19 44.7 µM | SNB-75 28.6 µM | U-251 65.2 µM
